Test results published in patent US20260209256A1, “PHOSPHINE OXIDE-BASED PHOTOINITIATORS” (Arkema France, priority 2022, published 2026).

Legend:
[1] = Curing experiments: belt cure under LED lamp at 395 nm; settings: LED 395 nm, 50 μm film
Method: Testing Protocol: Formulations were prepared by combining all materials in the given proportions and then stirring at 30-40° C. until the samples were fully homogeneous; the formulations were then allowed to cool to 20° C. All components remained fully dissolved in the resin formulations throughout these experiments. For all experiments, the formulations were cured on Leneta Form 3N-31 gloss finish paper at 50 μm film thickness using a belt-cure instrument; the films were prepared using a K-bar. All films were then cured under an LED lamp at 395 nm at a belt speed of 10 m/min. The cure speed for each formulation was calculated from the number of passes under each lamp required to give complete surface cure (determined when light scratching of the surface of the film no longer left a mark) and depth cure (determined using the ‘thumb-twist’ test, where no visible mark is made when a thumb is pressed down firmly onto the coating with a twisting motion), and from the belt speed; the calculated cure speed (in m/min) is given in Tables 1A-1B as an average of 3 runs. Where cure speed was less than 0.3 m/min, the result was recorded as ‘No cure’.

[2] = LED-DSC test of 3D printing curable compositions
Method: A photo differential scanning calorimetry (DSC) with a customized 405 nm LED lamp setup was used. All photopolymerization rate measurement were performed using a Q2000 DSC unit from TA Instruments. A lamp holder for the DSC unit can be customized and printed from Arkema N3xtDimention® engineered resin N3D-TOUGH784 in order to ensure precisely fit of a 405 nm lamp AccuCure ULM-2-405 from Digital Light Labs. The LED light was automatically triggered by connecting the “Event” outlet of the DSC unit to an Accure Photo Rheometer Ultraviolet Illumination & Measurement System. LED light exposure can be programed by using “Event” on or off from Photo DSC software, but the intensity of light can be preset from the Accure Photo Rheometer Ultraviolet Illumination & Measurement System. For measurement, approximate 10 mg liquid sample was placed at the center of a T130522 DSC Tzero pan, cured by exposing it to 50 mW/cm^2 of 405 nm LED light for 0.3 minutes under a 50 mL/min N2 flow rate and 40° C. The resulting heat flow (W/g) curve was collected to analyze maximum heat flow peak value and maximum peak time, and listed in Table 3A.

[3] = Stability by LED-FTIR analysis at 405 nm (accelerated ageing); type: physicochemical; settings: photoinitiator or formulation aged at 60° C. for 1 week, 10 mW, dry air, FIG. 6A/6B
Method: The cure speed of aged samples comprising Photoinitiator 11 vs Speedcure TPO was acquired in experimental formulations using LED-FTIR analysis. The photoinitiator was aged at 60° C. for 1 week, then made into formulation and directly compared to ageing the photoinitiator in formulation at 60° C. for 1 week.
LED FT-IR Analysis was conducted on a ThermoScientific Nicolet iS50 Ft-IR Spectrometer with a standard DLaTGS detector 2. A film applicator was used to spread the applied sample into a film of 3 mils thickness. For analysis all the spectra are normalized by using the 1727 cm^−1 (—C═O stretch) peak as reference. For acrylic monomers, the decrease in peak height of C═C peak at 1407 cm^−1 was used for measuring conversion versus time The degree of conversion of the monomers was calculated by measuring the peak height. The stability results for the formulations comprising Speedcure TPO are shown in FIG. 6A and stability the results for the formulations comprising Photoinitiator 11 are shown in FIG. 6B.

[4] = FTIR test: acrylate conversion; settings: FIG. 2A
Method: A Fourier Transform Infrared (FTIR) with an Attenuated Total Reflection (ATR) setup was used. All polymerization rate measurements were performed using Nicolet iS50 FT-IR Spectrometer from Thermo Scientific, equipped with a standard DLaTGS detector. A lamp holder for the ART platform of FTIR unit can be customized and printed from Arkema N3xtDimention® engineered resin N3D-TOUGH784 in order to ensure precisely fit of a 405 nm lamp AccuCure ULM-2-405 from Digital Light Labs. On the bottom of this lamp holder, a dry air channel is built in to allow air uniformly blowing over sample surface, the gas flow rate can be controlled over a rotameter. The LED light was manually triggered by Ultraviolet illumination & Measurement System. […] Measurements of acrylate conversion were taken at the height under the reference peak around 1720 cm^−1; the acrylate peak at approximately 1407 cm^−1 was also measured. Peak height was determined using the baseline technique where a baseline is chosen to be the two lowest points between 600 cm^−1 and 1800 cm^−1. The height under the peak and above the baseline was then determined. […]
The ratio of the acrylate height to the reference peak height were determined for both the liquid and the cured samples. Degree of cure or conversion, expressed as percentage reacted acrylate, was calculated from the equation below: […]

[5] = UV PhotoDSC of nail gel top coat compositions
Method: Photo Differential Scanning Calorimetry (PhotoDSC) was used to measure the cure speed, heat generation during cure and heat flow measurements for the UV curable top coat compositions containing TPO, TPO-L and Photoinitiator 9 as shown in Table 2C below. PhotoDSC was measured using a TA instruments Q2000 DSC equipped with an EFOS A4000 Acticure UVNisible light curing system containing a 100 W Mercury lamp light source. The UV-light intensity was measured out of the sample window using an EIT UV power puck II radiometer prior to the experiment. Sample preparation for PhotoDSC occurred as follows: A Tzero aluminum reference pan and a Tzero aluminum sample pan were weighed. One drop of formulation (about 5-15 milligrams) was placed at the center of the sample pan and the mass was recorded. The two pans were placed in the DSC apparatus. The system was stabilized at 25° C. for 30 seconds under a continuous stream of nitrogen. An isothermal experiment was initiated and sample and reference pan were flooded with UVNisible light (320 to 450 nm, 190-210 mJ/cm^2) for two minutes. An exothermic peak, due to crosslinking, is recorded during the experiment. The cure speed is measured by determining the time it takes to reach the peak max while the lamp is turned on. The area under the peak is recorded as the heat flow value (J/g). The max temperature during cure is recorded as the temperature shown at the maximum peak during cure.

[6] = Stability in inkjet formulations, LED curing 395 nm; type: physicochemical; settings: cyan ink, 6 μm film; FIG. 7B
Method: Resins and photoinitiators were mixed at the target weight ratio before gently stirring using magnetic stirrers at 30-40° C. for 3 hours. Solubility was checked by eye to confirm full dissolution. Curing results at target film weight, were checked by lightly scratching for surface curing and compressed thumb twist for depth curing. Average curing speed was calculated using the belt speed divided by the passing number recorded when full cured resin was achieved. For practical purposes, curing speed less than 0.3 m/min was categorised as “No cure”. Duplicate curing was performed for the same formulation, average curing speed was used for final comparisons. […] Comparison of the initial cure speed vs the cure speed of aged samples was directly compared. […] Film weights were 6 μm.

[7] = Stability in inkjet formulations, mercury curing; type: physicochemical; settings: cyan ink, same phosphine oxide w/w %, 6 μm film; FIG. 7A
Method: Resins and photoinitiators were mixed at the target weight ratio before gently stirring using magnetic stirrers at 30-40° C. for 3 hours. Solubility was checked by eye to confirm full dissolution. Curing results at target film weight, were checked by lightly scratching for surface curing and compressed thumb twist for depth curing. Average curing speed was calculated using the belt speed divided by the passing number recorded when full cured resin was achieved. For practical purposes, curing speed less than 0.3 m/min was categorised as “No cure”. Duplicate curing was performed for the same formulation, average curing speed was used for final comparisons.
Cure speed of samples was checked at T=0, then samples were aged in an oven at 60° C. for 2 weeks before reassessing cure speed. Comparison of the initial cure speed vs the cure speed of aged samples was directly compared. Lamp system: the mercury lamp was at an intensity of 50%, with belt speed 10 m/min The LED lamp was set at 395 nm, with a lamp intensity of 70%, at belt speed 20 m/min

[8] = 8% w/w photoinitiator in 7:3 w/w bisphenol A ethoxylate diacrylate/tripropylene glycol diacrylate, average of 3 runs
[9] = same active phosphine oxide concentration (given Wt %) in 7:3 w/w bisphenol A ethoxylate diacrylate/tripropylene glycol diacrylate
[10] = compositions containing 2 wt % photoinitiator
[11] = compositions containing 4 wt % photoinitiator

SMILES | Cure speed (m/min) Depth cure [1, 8] [m/min] | Cure speed (m/min) Surface cure [1, 8] | Cure speed (m/min) Depth cure [1, 9] [m/min] | Cure speed (m/min) Surface cure [1, 9] | cure speed in formulations at the same equivalent of phosphine oxide [2] | stability: cure speed after accelerated ageing [3] | cure speed in formulations at the same equivalent of phosphine oxide [4] | time to peak max [5, 10] [min] | time to peak max [5, 11] [min] | initial curing under 395 nm LED [6] | initial curing performance under mercury lamp [7]
CCCCNC(=O)C(CC(=O)c1c(C)cc(C)c(C(=O)P(=O)(c2ccccc2)c2ccccc2)c1C)N1CCOCC1 (single isomer, unassigned) [Photoinitiator 3] | 3.9 | No cure (Where cure speed was less than 0.3 m/min, the result was recorded as ‘No cure’) | 5.0 | 1.7 m/min | – | – | – | – | – | – | –
CCCCNC(=O)C(CC(=O)c1c(C)cc(C)c(C(=O)P(=O)(c2ccccc2)c2ccccc2)c1C)N1CCN(C)CC1 (single isomer, unassigned) [Photoinitiator 4] | 5.0 | No cure (Where cure speed was less than 0.3 m/min, the result was recorded as ‘No cure’) | 5.0 | 1.6 m/min | – | – | – | – | – | – | –
CCCCNC(=O)/C=C\C(=O)c1c(C)cc(C)c(C(=O)P(=O)(c2ccccc2)c2ccccc2)c1C [Precursor 3] | 1.8 | No cure (Where cure speed was less than 0.3 m/min, the result was recorded as ‘No cure’) | 1.8 | No cure (Where cure speed was less than 0.3 m/min, the result was recorded as ‘No cure’) | – | – | – | – | – | – | –
Cc1cc(C)c(C(=O)P(=O)(c2ccccc2)c2ccccc2)c(C)c1 [SpeedCure TPO, 2,4,6-trimethylbenzoyl diphenyl phosphine oxide] | 5.6 | 2.2 m/min | 5.6 | 2.2 m/min | Precursor 4<Photoinitiator 6<TPO | larger reduction in cure speed than Photoinitiator 11 | Precursor 4<Photoinitiator 6<TPO | 0.5 | 0.06 | – | –
Cc1cc(C)c(C(=O)P(=O)(C(=O)c2c(C)cc(C)cc2C)c2ccccc2)c(C)c1 [Speedcure BPO, bis-(2,4,6-trimethylbenzoyl)phenyl phosphine oxide] | – | – | – | – | – | – | – | – | – | best curing results | closely followed
CCOP(=O)(C(=O)c1c(C)cc(C)cc1C)c1ccccc1 (stereo not shown) [Speedcure TPO-L, Ethyl (2,4,6-trimethylbenzoyl)phenyl phosphinate] | – | – | – | – | – | – | – | 0.06 | 0.06 | – | –
